Measured values published in ChEMBL document CHEMBL4513149, “CO-ADD screening of MMV (CH) - MMV compounds” (2021).
≈ marks a conversion by molar mass, not a printed value. Structures can show the parent of a compound that is named as a salt.

Experiments:
Pseudomonas aeruginosa = assay: microbe, parasite or virus in culture; conditions: ATCC 27853, 18 h, ASSAY_TEST Inhibition of Bacterial Growth, detection method Absorption (OD600), MEDIA CAMHB, plate type 384well, NBS, CORNING #3640
Description: Antibacterial activity against Pseudomonas aeruginosa ATCC 27853 (CO-ADD:GN_042); MIC in CAMBH media using NBS plates, by OD(600)

HEK293 = assay: cells; type: functional; conditions: Homo sapiens, ATCC CRL1573, HEK293; ASSAY_TEST Inhibition of Cell Viability; detection method Resazurin; Fluorescence (ex560/em590); MEDIA DMEM with 10% FBS; plate type 384well; TC; CORNING #3712; time 18 hr
Candida albicans = assay: microbe, parasite or virus in culture; conditions: ATCC 90028, ASSAY_TEST Inhibition of Fungal Growth, detection method Absorption (OD530), plate type 384well, NBS, CORNING #3640
Description: Antifungal activity against Candida albicans ATCC 90028 (CO-ADD:FG_001); MIC in YNB media using NBS plates, by OD630

Acinetobacter baumannii = assay: microbe, parasite or virus in culture; conditions: ATCC 19606, 18 h, ASSAY_TEST Inhibition of Bacterial Growth, detection method Absorption (OD600), MEDIA CAMHB, plate type 384well, NBS, CORNING #3640
Description: Antibacterial activity against Acinetobacter baumannii ATCC 19606 (CO-ADD:GN_034); MIC in CAMBH media using NBS plates, by OD600

Klebsiella pneumoniae = assay: microbe, parasite or virus in culture; conditions: ATCC 700603, 18 h, ASSAY_TEST Inhibition of Bacterial Growth, detection method Absorption (OD600), MEDIA CAMHB, plate type 384well, NBS, CORNING #3640
Description: Antibacterial activity against Klebsiella pneumoniae MDR ATCC 70063 (CO-ADD:GN_003); MIC in CAMBH media using NBS plates, by OD(600)

Escherichia coli = assay: microbe, parasite or virus in culture; conditions: ATCC 25922, 18 h, ASSAY_TEST Inhibition of Bacterial Growth, detection method Absorption (OD600), MEDIA CAMHB, plate type 384well, NBS, CORNING #3640
Description: Antibacterial activity against Escherichia coli ATCC 25922 (CO-ADD:GN_001); MIC in CAMBH media using NBS plates, by OD(600)

Staphylococcus aureus = assay: microbe, parasite or virus in culture; conditions: ATCC 43300, 18 h, ASSAY_TEST Inhibition of Bacterial Growth, detection method Absorption (OD600), MEDIA CAMHB, plate type 384well, NBS, CORNING #3640
Description: Antibacterial activity against Staphylococcus aureus MRSA ATCC 43300 (CO-ADD:GP_020); MIC in CAMBH media, using NBS plates, by OD(600)

Description for Cryptococcus neoformans: Antifungal activity against Cryptococcus neoformans H99 ATCC 208821 (CO-ADD:FG_002); MIC in YNB media using NBS plates, by Resazurin OD(600-570)

MIC (Pseudomonas aeruginosa) [µM]	MIC (Candida albicans) [µM]	MIC (Acinetobacter baumannii) [µM]	MIC (Klebsiella pneumoniae) [µM]	MIC (Cryptococcus neoformans) [µM]	MIC (Escherichia coli) [µM]	MIC (Staphylococcus aureus) [µM]	Structure (SMILES)	CC50 (HEK293) [µM]
> 10	> 10	> 10	> 10	> 10	> 10	1.25 (≈ 0.448 µg/mL)	CC(=O)NCC1CN(c2ccc(-c3ccc(CO)cc3)c(F)c2)C(=O)O1 (stereo unspecified)	> 10
> 10	5 (≈ 1.63 µg/mL)	> 10	> 10	> 10	> 10	> 10	Cc1[nH]c2ccccc2c1C(c1cccs1)N1CCN(C)CC1 (stereo unspecified)	> 10
> 10	> 10	> 10	> 10	> 10	> 10	10 (≈ 3.77 µg/mL)	COc1cccc(-c2nc3c(N4CCCC4)cccc3n2CC2CCCN2)n1 (stereo unspecified)	> 10
> 10	0.312	> 10	> 10	> 10	> 10	> 10	N=C(N)c1ccc(OCCCCCOc2ccc(C(=N)N)cc2)cc1 [PENTAMIDINE ISETHIONATE]	> 10
> 10	> 10	> 10	> 10	> 10	> 10	> 10	Clc1cccc(C(c2ccc(CN3CCNCC3)cc2)n2ccnc2)c1 (stereo unspecified)	> 10
0.156	> 10	> 10	> 10	> 10	1.25	0.156	C[C@H]1c2cccc(O)c2C(=O)C2=C(O)[C@]3(O)C(=O)C(C(N)=O)=C(O)[C@@H](N(C)C)[C@@H]3[C@@H](O)[C@@H]21 [DOXYCYCLINE HYDROCHLORIDE]	> 10
> 10	> 10	> 10	> 10	> 10	> 10	> 10	O=C(Nc1cccnc1)c1c(O)c2cccc3c2n(c1=O)CC3	> 10
> 10	> 10	> 10	> 10	> 10	> 10	> 10	O=C([C@@H](c1ccc(Cl)cc1)c1cccnc1)N1CCN(c2ccc(C(F)(F)F)cc2)CC1	> 10
5 (≈ 4.11 µg/mL)	> 10	> 10	> 10	> 10	10 (≈ 8.23 µg/mL)	≤ 0.0781	CO[C@H]1/C=C/O[C@@]2(C)Oc3c(C)c(O)c4c(O)c(/c(=C/NN5CCN(C)CC5)c(O)c4c3C2=O)=N\C(=O)/C(C)=C\C=C/[C@H](C)[C@H](O)[C@@H](C)[C@@H](O)[C@@H](C)[C@H](OC(C)=O)[C@@H]1C	> 10
> 10	> 10	> 10	> 10	> 10	> 10	> 10	CCCn1c(NC(=O)c2ccc3ccccc3n2)nc2ccccc21	> 10
> 10	> 10	> 10	> 10	> 10	> 10	> 10	O=C(c1ccco1)N(CCCn1ccnc1)c1nc2c(Cl)cccc2s1	> 10
> 10	> 10	> 10	> 10	> 10	> 10	> 10	COc1cccc(-n2nnnc2S(=O)(=O)Cc2ccccc2)c1	> 10
> 10	> 10	> 10	> 10	> 10	> 10	> 10	Cc1nn2c(=O)c3c([nH]c2c1-c1ccc(Cl)cc1)CCCC3	> 10
> 10	> 10	> 10	> 10	> 10	> 10	> 10	CCc1c(C)nc(-n2nc(C)cc2NC(=O)c2ccccc2SC)[nH]c1=O	> 10
> 10	> 10	> 10	> 10	> 10	> 10	10 (≈ 3.64 µg/mL)	CC(c1cc(Cl)cc(Cl)c1)N(C)c1ncc2c(N)nc(N)nc2n1 (stereo unspecified)	> 10
> 10	> 10	> 10	> 10	> 10	> 10	> 10	CCCCCCCCCCCCCCCCOP(=O)([O-])OCC[N+](C)(C)C [MILTEFOSINE]	> 10
> 10	> 10	> 10	> 10	> 10	> 10	> 10	CCN(CC)S(=O)(=O)c1ccc(C(=O)Nc2cc(C)nn2-c2nc(C)c(C)c(=O)[nH]2)cc1	> 10
> 10	> 10	> 10	> 10	> 10	> 10	> 10	O=C(Nc1ccc(N2CCNCC2)cc1)c1ccn2ncc(-c3cccc(Cl)c3)c2n1	9.02
> 10	> 10	> 10	> 10	> 10	> 10	10 (≈ 2.94 µg/mL)	c1ccc(-c2nc(NC3CCCCC3)cc(C3CC3)n2)nc1	> 10
> 10	> 10	> 10	> 10	> 10	> 10	5 (≈ 1.77 µg/mL)	CC(=O)NC[C@H]1CN(c2ccc(N3CCSCC3)c(F)c2)C(=O)O1 [SUTEZOLID]	> 10
> 10	> 10	> 10	> 10	> 10	> 10	> 10	Cn1c(=O)c2c(S(C)(=O)=O)snc2n(C)c1=O	9.72
> 10	> 10	> 10	> 10	> 10	> 10	10 (≈ 3.59 µg/mL)	FC(F)(F)c1cnc(Sc2nnc(-c3ccncc3)o2)c(Cl)c1	> 10
> 10	> 10	> 10	> 10	> 10	> 10	> 10	CCOC(=O)NC(=O)c1ccsc1NC(=O)c1nc2ccccc2s1	> 10
> 10	> 10	> 10	> 10	> 10	> 10	> 10	c1csc(-c2cnc3sc(NCC4CCOCC4)nn23)c1	> 10
> 10	0.156 (≈ 0.057 µg/mL)	> 10	> 10	≤ 0.0781	> 10	> 10	Cc1nc(-c2ccccn2)nc(N2CCC(Cc3ccccc3)C2)c1Cl (stereo unspecified)	> 10
> 10	> 10	> 10	> 10	> 10	> 10	> 10	CC(C)(C)[C@H]1CC[C@H](CC2=C(O)C(=O)c3ccccc3C2=O)CC1 [BUPARVAQUONE]	> 10
> 10	> 10	> 10	> 10	> 10	> 10	> 10	COc1cccc(-n2nnnc2S(C)(=O)=O)c1	2.96

Structure (SMILES)	MIC (Pseudomonas aeruginosa) [µM]	MIC (Candida albicans) [µM]	MIC (Acinetobacter baumannii) [µM]	MIC (Klebsiella pneumoniae) [µM]	MIC (Cryptococcus neoformans) [µM]	MIC (Escherichia coli) [µM]	MIC (Staphylococcus aureus) [µM]	CC50 (HEK293) [µM]
O=C1O[C@@H](CO)CN1c1cc(F)c(C2=CCN(Cc3ccccc3)CC2)c(F)c1	> 10	> 10	> 10	> 10	> 10	> 10	> 10	> 10
CO/N=C(\C(=O)OC)c1ccccc1CO/N=C(\C)c1cccc(C(F)(F)F)c1	> 10	> 10	> 10	> 10	> 10	> 10	> 10	> 10
CC1COC(Cn2cncn2)(c2ccc(Oc3ccc(Cl)cc3)cc2Cl)O1 (stereo unspecified) [DIFENOCONAZOLE]	> 10	0.625 (≈ 0.254 µg/mL)	> 10	> 10	0.625 (≈ 0.254 µg/mL)	> 10	> 10	> 10
O=C1O[C@@H](COc2ccon2)CN1c1cc(F)c(C2=CCN(Cc3ccccc3)CC2)c(F)c1	> 10	> 10	> 10	> 10	> 10	> 10	> 10	> 10
CC(C)(C)C(O)C(Oc1ccc(-c2ccccc2)cc1)n1cncn1 (stereo unspecified) [BITERTANOL]	> 10	5 (≈ 1.69 µg/mL)	> 10	> 10	1.25 (≈ 0.422 µg/mL)	> 10	> 10	> 10
